Reference: patent publication US10058525B2, “Application of chlorogenic acid in preparing medicines for treating lupus erythematosus” (SICHUAN JIUZHANG BIOLOGICAL SCIENCE AND TECHNOLOGY CO., LTD., priority 2015, dated 2018)
“Also recorded” adds a separate entry of the source.

Tests used:
[1] = test system: ANA; assay: Serologic detection of ANA by immunofluorescence on HEp-2 cell sheets, serum of UV + LPS lupus model mice; type: in vivo, BALB/c mice; parameters: key: (+): positive; (−): negative; (++++): intenseintensity; (+++): stronger fluorescent intensity; conditions: day 14; positive controls (artesunate 2 mg/kg*d, prednisone 1 mg/kg*d) by stomach perfusion
Procedure: (§1) The back of mice was shaved and acutely exposed to Ultraviolet of 2 h/d*3 d, with a distance of 30 cm. After exposure to UV, 2.5 mg/kg of LPS was administrated once by ip, and after 24 h, the model was successfully established; the mice in the normal control group received normal saline via ip. 24 h after injection of LPS (ip), medicines were given to the model mice by intragastric administration. Chlorogenic acid test groups received high, middle, and low doses of medicines, by intragastric administration at a respective dosage of 10 mg/kg*d, 20 mg/kg*d, and 40 mg/kg*d. The positive control group A received 2 mg/kg*d of artesunate by stomach perfusion, while the positive control group B received 1 mg/kg*d of prednisone by stomach perfusion. Mice in the model and normal control group all received 0.4 ml/mouse normal saline by gavage. After 15 days of administration, animals in each group were taken blood by separating eyeballs on days 14, 21, 28, and after cultured in water bath at 37° C. for 1 h, the blood sample was centrifugated at 2000 r/min for 5 min, to draw serum for use. On day 21, after blood collection, animals were sacrificed by dislocation, followed by collection of liver and kidney, and they were placed in fixative solutions of electron microscope and light microscrope, respectively. Serum of mice was diluted at 1:100 with special buffer solution of Shenzhen Hengjia, and then 200 μL of diluted serum was respectively added to the reactive tank with corresponding number, cultured in the incubator at 37° C. for 30 min, and washed with the buffer solution four times, 2 min for each time; 200 μL of diluted biotin goat anti-mouse IgG (1:100) was added, cultured in the incubator at 37° C. for 30 min, and then washed with the buffer solution four times, 2 min for each time; 100 μL of diluted HRP-avidin (1:100) was added, cultured in the incubator at 37° C. for 30 min, and then washed as mentioned-above; reactive solutions A and B were added till appearance of positive bands, then washed with the buffer solution. Compared with the standard bands of ENA polypeptide antibody spectrum in the same kit, if the positive bands appeared at 28/29,13.5 ku polypeptide; 15,16.5,38 kupolypeptide; 52 kupolypeptide and 47/48,45 kupolypeptide, that can be determined as anti-Sm, anti-Rib, anti-ssA, and anti-ssB positive antibody. Serum was diluted with PBS at 1:40, then 20-30 μL of diluted serum was dropped into the scrobiculus of HEp-2 cell sheets, each cell sheet for each group. In the process of dropping serum, it should be noted that the surface of cell sheet can not be touched. After addition of serum, cell sheet was placed in wet box and kept for 30 min at room temperature (25° C.). After 30 min, the cell sheet was taken out, and serum was carefully washed out with PBS, then carefully washed twice with PBS, 5 min for each time; after washing, the remained PBS was removed by special absorbent paper of […] company (In this process, it should be noted that becoming dry of cell substrates will affect the results). 20-30 μL of diluted (PBS, 1:100) FITC goat anti-mouse IgG was added by dropping, and then incubated in wet box at room temperature for 30 min. After washing with PBS, steps were same to above. The remained PBS was removed by absorbent paper, and 1-2 drops of fluorescent mounting media were added to the cell sheet. The cover glass was mounted, observed under Olympus BH-2 universal microscope, and then photographed.

[2] = test system: lupus erythematosus model mice (kidney, liver); assay: Triple staining (silver staining) of kidney and liver sections under light microscope, lupus model mice; type: in vivo, BALB/c mice; conditions: positive controls (artesunate, prednisone); for basilar membrane of renal glomerulus and tubule, pathological section: 21 days; for glomerular basement membrane thickness compared with the normal mice (FIG. 9, FIG. 10): 28 days, ×50
Procedure: (§2) The back of mice was shaved and acutely exposed to Ultraviolet of 2 h/d*3 d, with a distance of 30 cm. After exposure to UV, 2.5 mg/kg of LPS was administrated once by ip, and after 24 h, the model was successfully established; the mice in the normal control group received normal saline via ip. 24 h after injection of LPS (ip), medicines were given to the model mice by intragastric administration. Chlorogenic acid test groups received high, middle, and low doses of medicines, by intragastric administration at a respective dosage of 10 mg/kg*d, 20 mg/kg*d, and 40 mg/kg*d. The positive control group A received 2 mg/kg*d of artesunate by stomach perfusion, while the positive control group B received 1 mg/kg*d of prednisone by stomach perfusion. Mice in the model and normal control group all received 0.4 ml/mouse normal saline by gavage. After 15 days of administration, animals in each group were taken blood by separating eyeballs on days 14, 21, 28, and after cultured in water bath at 37° C. for 1 h, the blood sample was centrifugated at 2000 r/min for 5 min, to draw serum for use. On day 21, after blood collection, animals were sacrificed by dislocation, followed by collection of liver and kidney, and they were placed in fixative solutions of electron microscope and light microscrope, respectively.
[…] The thickness of slice is 3 μm, and at beginning of staining, wax was routinely deprived to water. After oxidation with 0.5% periodic acid, the slice was macerated in hexamine silver fluid for about 2 h (constant temperature 58° C.), washed with distilled water, dyed with hematoxylin for 1 min. After washing with water, the slice was dyed by dropping the ponceau staining solution for 5 min, differentiated with 70% ethanol, dehydrated with gradient ethanol, cleared with xylene, and sealed with neutral gum.

[3] = test system: ENA polypeptide antibodies (anti-Sm, anti-Rib, anti-ssA, anti-ssB); assay: Serologic detection of ENA polypeptide antibodies by immunoblotting in serum of UV + LPS lupus model mice; type: in vivo, BALB/c mice; parameters: key to Anti-Rib: (+): positive; (−): negative; key to Anti-Sm / Anti-ssA / Anti-ssB: (+): positive; (−): negative; (++++): intenseintensity; (+++): stronger fluorescent intensity; conditions: for Anti-Rib / Anti-Sm / Anti-ssA / Anti-ssB: positive controls (artesunate 2 mg/kg*d, prednisone 1 mg/kg*d) by stomach perfusion; for ENA polypeptide antibodies found positive (FIG. 1): treated 14 days, positive controls (artesunate, prednisone)
Procedure: as §1

[4] = test system: lupus erythematosus model mice (renal glomerular capsule wall epithelial cells); assay: Electron microscope observation of kidney samples, lupus model mice; type: in vivo, BALB/c mice; conditions: positive controls (artesunate, prednisone), 21 days; compared with the model group
Procedure: as §2, with “respectively. On day 21, the sample used for observation under electron microscope was fixed in mixed stationary solution of 2% paraformaldehyde+0.25% glutaral for 4 h, rinsed with TBS, treated with 1% osmic acid, followed by fixation for 1 h, rinsed with buffer solution, dehydrated with acetone, dyed with uranyl acetate for 2 h, macerated in Epon812 and embedded, and cut into slices with LEICA ultramicrotome. The slices were stained with lead solution, and the sample was observed under transmission electron microscope when it was dry.” for “respectively.”

[5] = test system: ANA; assay: Serologic detection of ANA by immunofluorescence on HEp-2 cell sheets, serum of UV + LPS lupus model mice; type: in vivo, BALB/c mice; conditions: artesunate, 28 days, ×200
Procedure: The back of mice was shaved and acutely exposed to Ultraviolet of 2 h/d*3 d, with a distance of 30 cm. After exposure to UV, 2.5 mg/kg of LPS was administrated once by ip, and after 24 h, the model was successfully established; the mice in the normal control group received normal saline via ip. 24 h after injection of LPS (ip), medicines were given to the model mice by intragastric administration. Chlorogenic acid test groups received high, middle, and low doses of medicines, by intragastric administration at a respective dosage of 10 mg/kg*d, 20 mg/kg*d, and 40 mg/kg*d. The positive control group A received 2 mg/kg*d of artesunate by stomach perfusion, while the positive control group B received 1 mg/kg*d of prednisone by stomach perfusion. Mice in the model and normal control group all received 0.4 ml/mouse normal saline by gavage. After 15 days of administration, animals in each group were taken blood by separating eyeballs on days 14, 21, 28, and after cultured in water bath at 37° C. for 1 h, the blood sample was centrifugated at 2000 r/min for 5 min, to draw serum for use. On day 21, after blood collection, animals were sacrificed by dislocation, followed by collection of liver and kidney, and they were placed in fixative solutions of electron microscope and light microscrope, respectively. Serum of mice was diluted at 1:100 with special buffer solution of Shenzhen Hengjia, and then 200 μL of diluted serum was respectively added to the reactive tank with corresponding number, cultured in the incubator at 37° C. for 30 min, and washed with the buffer solution four times, 2 min for each time; 200 μL of diluted biotin goat anti-mouse IgG (1:100) was added, cultured in the incubator at 37° C. for 30 min, and then washed with the buffer solution four times, 2 min for each time; 100 μL of diluted HRP-avidin (1:100) was added, cultured in the incubator at 37° C. for 30 min, and then washed as mentioned-above; reactive solutions A and B were added till appearance of positive bands, then washed with the buffer solution. Compared with the standard bands of ENA polypeptide antibody spectrum in the same kit, if the positive bands appeared at 28/29,13.5 ku polypeptide; 15,16.5,38 kupolypeptide; 52 kupolypeptide and 47/48,45 kupolypeptide, that can be determined as anti-Sm, anti-Rib, anti-ssA, and anti-ssB positive antibody. Serum was diluted with PBS at 1:40, then 20-30 μL of diluted serum was dropped into the scrobiculus of HEp-2 cell sheets, each cell sheet for each group. In the process of dropping serum, it should be noted that the surface of cell sheet can not be touched. After addition of serum, cell sheet was placed in wet box and kept for 30 min at room temperature (25° C.). […]

[6] = test system: ANA; assay: as above; type: in vivo, BALB/c mice; parameters: key: (+): positive; (−): negative; (++++): intense fluorescence; (+++): stronger fluorescence; (++): weeker fluorescence; conditions: positive controls (artesunate 2 mg/kg*d, prednisone 1 mg/kg*d) by stomach perfusion
Procedure: as §1

[7] = test system: lupus erythematosus; assay: Screening medicines for treatment of lupus erythematosus; conditions: screening of extracts and potency constituents; no method given

## C[C@H]1[C@H](OC(=O)CCC(=O)O)O[C@@H]2O[C@@]3(C)CC[C@H]4[C@H](C)CC[C@@H]1[C@@]24OO3 [Artesunate, artesunate, reference compound]
[1]
  ANA: (++++)
[2]
  basilar membrane of renal glomerulus and tubule, pathological section: increased thickness compared with the normal mice
  glomerular basement membrane thickness compared with the normal mice (FIG. 9, FIG. 10): increased thickness
[3]; day 14
  Anti-Rib: (+)
  Anti-Sm: (+)
  Anti-ssA: (+)
  Anti-ssB: (+)
[3]; day 21
  Anti-Rib: (+)
  Anti-Sm: (+)
  Anti-ssA: (+)
  Anti-ssB: (+)
[3]; day 28
  Anti-Rib: (−)
  Anti-Sm: (+)
  Anti-ssA: (+)
  Anti-ssB: (+)
[3]
  ENA polypeptide antibodies found positive (FIG. 1): anti-Sm, anti-ssA and anti-ssB bodies are positive
[4]
  proliferative degree of renal glomerular capsule wall epithelial cells: slightly relieves; also recorded: somewhat relieved
[5]
  fluorescence intensity of ANA (FIG. 5): doesn't decrease
[6]; day 21
  ANA: (+++)
[6]; day 28
  ANA: (+++)

## C[C@]12C=CC(=O)C=C1CC[C@@H]1[C@@H]2C(=O)C[C@@]2(C)[C@H]1CC[C@]2(O)C(=O)CO [Prednisone, prednisone, reference compound]
[1]
  ANA: (++++)
[2]
  basilar membrane of renal glomerulus and tubule, pathological section: increased thickness compared with the normal mice
  glomerular basement membrane thickness compared with the normal mice (FIG. 9, FIG. 10): obviously increased thickness
[3]; day 14
  Anti-Rib: (+)
  Anti-Sm: (+)
  Anti-ssA: (+)
  Anti-ssB: (+)
[3]; day 21
  Anti-Rib: (+)
  Anti-Sm: (+)
  Anti-ssA: (+)
  Anti-ssB: (+)
[3]; day 28
  Anti-Rib: (+)
  Anti-Sm: (+)
  Anti-ssA: (+)
  Anti-ssB: (+)
[3]
  ENA polypeptide antibodies found positive (FIG. 1): anti-Sm, anti-ssA and anti-ssB bodies are positive
[4]
  proliferative degree of renal glomerular capsule wall epithelial cells: slightly relieves; also recorded: somewhat relieved
[6]; day 21
  ANA: (+++)
[6]; day 28
  ANA: (+++)

## OCC1=C[C@@H](O)[C@@H]2C=CO[C@@H](O[C@@H]3O[C@H](CO)[C@@H](O)[C@H](O)[C@H]3O)[C@H]12 [aucubin]
[7]
  inhibition on lupus erythematosus: relatively obvious inhibition

## O=C(O)C1=CO[C@@H](O[C@@H]2O[C@H](CO)[C@@H](O)[C@H](O)[C@H]2O)[C@@H]2C(CO)=CC[C@H]12 [geniposidic acid]
[7]
  inhibition on lupus erythematosus: relatively obvious inhibition
